Measurements published in patent publication US8268889B2, “Treatment of ovarian cancer” (Ramot at Tel-Aviv University Ltd., priority 2006, dated 2012).

Columns and labels:
[1] = tested on: Ras-GTP; assay: Determination of Ras-GTP by GST-RBD pull-down assay and Western immunoblotting; assay type: cell-based, human; details: OVCAR-3 cells; for reduction in Ras-GTP: 24 h
Procedure: (§1) OVCAR-3 cells were plated at a density of 1.5×10^6 cells in 10-cm plates and grown for 24 h in the presence of 25 or 50 μM FTS. The cells were lysed in 0.5 mL of the Ras-binding domain of Raf-1 (RBD) lysis buffer [Herrmann, C., Martin, G. A. and Wittinghofer, A., J Biol Chem 270:2901-05 (1995)] containing 0.1 mM orthovanadate. Lysates containing 50 μg protein were used to determine total Ras by Western immunoblotting with pan anti-Ras antibody (Ab) and lysates containing 1500 μg protein to determine Ras-GTP by the glutathione S-transferase RBD pull-down assay followed by Western immunoblotting with pan anti-Ras Ab and enhanced chemiluminescence, as previously described [Fridman, M., Maruta, H. and Gonez, J., J Biol Chem 275:30363-71 (2000)]. Mouse anti β-tubulin Ab (AK-15, Sigma) was used at a dilution of 1:500 to confirm equal protein loading.
(§2) In view of the finding that OVCAR-3 cells expressed significant amounts of Ras and active Ras-GTP (FIGS. 1a and b), Applicants examined whether the Ras antagonist FTS would affect the amounts of Ras and Ras-GTP in these cells in the same way as it affects active Ras in other cell lines [Marom, M., supra.; Elad, G., Paz, A., Haklai, R., Marciano, D., Cox, A., Kloog, Y. Biomed Biochim Acta 8:1452:228-42 (1999); Weisz, B., Giehl, K., Gana-Weisz, M. et al. Oncogene 18:2579-88 (1999)]. The cells were grown for 24 h in serum containing medium with or without 25 or 50 μM FTS. Similar conditions were used in earlier studies with other cell lines [Elad, supra.; Weisz, supra.]. […] Quantitative analysis of the immunoblots disclosed that FTS, at concentrations of 25 and 50 μM, caused significant reductions of 5% and 39%, respectively, in Ras and 19% and 41%, respectively, in Ras-GTP (FIG. 1b).

[2] = tested on: OVCAR-3 cells; assay: cells; assay type: cell-based
Procedure: The human epithelial ovarian cell line OVCAR-3 was obtained from the American Tissue Culture Collection. Cells were routinely grown in Roswell Park Memorial Institute 1640 medium containing 10% fetal calf serum, 0.1 mM nonessential amino acids, and 2 mM L-glutamine, at 37° C. in a humidified atmosphere of 95% air/5% CO2. To examine the effect of FTS on the anchorage-dependent cell growth, cells were plated at a density of 10×10^4 cells per well in 24-well plates to which either 0.1% DMSO (control) or the test concentrations of FTS were added after 24 h. […] Cells were stained with 3-(4,5-dimethylthiosol-2-yl)-2,5-diphenyltetrazolium bromide (MTT, Sigma Chemical Co., St. Louis, Mo.), incubated for 90 min, and dissolved in 0.3 mL of 100% DMSO. The extent of staining was determined spectrophotometrically (A570, A630) using an enzyme-linked immunosorbent assay reader. All assays were carried out in quadruplicate samples and were repeated three times.
Anchorage-dependent cell growth was examined in cells that were grown in the presence of FTS.

[3] = tested on: Ras; assay: Determination of total Ras by Western immunoblotting with pan anti-Ras antibody; assay type: cell-based, human; details: OVCAR-3 cells; for reduction in Ras: 24 h
Procedure: as §1, §2

[4] = tested on: OVCAR-3 cells; assay: cells; assay type: cell-based; details: Homo sapiens, 50 μM FTS alone, read-out: inhibition of cell growth
Procedure: OVCAR-3 cells were plated at a density of 10×10^4 cells per well in 24-well plates and grown for 3 days in the presence of 50 μM FTS. […] This protocol was chosen in order to induce only a small cytotoxic effect, thus enabling a determination of any possible enhanced effect with the Ras inhibitor. The number of live cells was evaluated 3 days later by MTT, as described earlier.
Thus, the greater than additive effect of these two drugs was manifested in an additional decrease of 35% in cell number, which was accounted for by death of the cells.

[5] = FTS alone, concentration not given

`CC(C)=CCC/C(C)=C/CC/C(C)=C/CSc1ccccc1C(=O)O` [FTS, farnesylthiosalicylic acid] was tested, and the “reduction in Ras-GTP” value ([1]; 25 μM FTS) was 19%, the “reduction in Ras-GTP” value ([1]; 50 μM FTS) was 41% and the “Ras-GTP reduced (summary statement)” value [1, 5] was 40%. For the same compound, the IC50 ([2]; Homo sapiens, OVCAR-3, read-out: IC50 (concentration causing 50% inhibition of cell growth)) was 54 µM, the “foci formation and growth” value ([2]; OVCAR-3 cultures, 7 days with 25 or 50 μM FTS) was “strongly inhibited” and the “reduction in Ras” value ([3]; 25 μM FTS) was 5%. For the same compound, the “reduction in Ras” value ([3]; 50 μM FTS) was 39%, the “Ras reduced (summary statement)” value [3, 5] was 40% and the inhibition at 50 µM [4] was 45%.
